Results from article PMC1764757 (BMC Cancer, 2006).
Values belong to the compound of their own block, whether it stands above or below them.

What was measured:
[1] = system: patients with advanced unresectable pancreatic cancer; assay: randomized phase II trial: survival, PFS and tumor response; format: in vivo, human
Excerpt: Patients with advanced unresectable pancreatic cancer were enrolled. Eligibility criteria included age ≥ 18 years, diagnosed (histologically or cytologically) with or without metastases, at least one bidimensionally measurable lesion, a Karnofsky performance score of ≥ 70%, a life expectancy of at least 12 weeks, and written informed consent. The main exclusion criteria were prior chemotherapy and/or major surgery related to pancreatic cancer before study entry with the exception of palliative surgery, brain metastases, a pancreatic tumor of neuroendocrine origin, second primary malignancies, inadequate liver and renal functions, inadequate bone marrow reserve, a history of cerebrovascular accident or repeated transient ischemic attacks and cardiac or cardiovascular abnormality.
This was a multi-national, open-label, controlled, randomized, parallel-group, phase II pilot study, conducted in 20 centers in 7 countries (Austria, Belgium, France, Germany, Spain, Switzerland, and the United Kingdom). Eligible patients were randomized to receive either Cilengitide and gemcitabine or gemcitabine alone. The Pocock minimization method [23] was applied for randomization using factors for center and for locally advanced or metastatic disease following the definition according to the tumor-node-metastasis (TNM) classification and histopathological grading system of the International Union Against Cancer. Cilengitide (600 mg/m^2) was administered twice weekly as a 1 hour intravenous (IV) infusion for 4 consecutive weeks (1 cycle). Gemcitabine (1000 mg/m^2) was administered as a weekly 30-minute IV infusion once weekly for 3 weeks followed by 1 week of rest (1 cycle). In the drug combination group, on the days on which both drugs were given, Cilengitide was given immediately prior to gemcitabine. The planned treatment period was 24 weeks (6 cycles), but patients responding to either regimen could continue treatment up to a maximum of 48 weeks.
Overall survival was defined as the time from the start of study drug administration to death. PFS was defined as the time interval between the date of randomization and the date of disease progression or death whichever came first. If neither was observed the patient was censored at the date of the last follow-up examination. A computed tomography or magnetic resonance imaging scan of target lesions was performed at baseline, weeks 9 and 17, and at the end of treatment to assess tumor size and treatment response. Unscheduled scans were conducted to confirm disease progression. Tumor response was assessed according to the amended World Health Organization (WHO) criteria for response based on the size of target lesions.
The sample size of the trial was determined by clinical feasibility. No inferential statistical comparison of the two treatment arms was planned. The aim was to obtain information on safety and feasibility as well as trends in efficacy by determination of overall survival as primary and progression-free survival (PFS), response rate, quality of life (QoL), effects on biological markers of disease (CA 19.9) and angiogenesis (vascular endothelial growth factor and basic fibroblast growth factor) and safety as secondary endpoints. Confidence intervals were presented at the 95%-confidence level. The data of this phase II pilot- and feasibility study, are presented in a descriptive manner. The primary analysis of survival (time to death from any cause) was conducted using the intention-to-treat (ITT) population. An additional supportive analysis using the Per Protocol (PP) population was conducted. The secondary objectives were to determine PFS, response rates, safety and tolerability, QoL, biological response, and pharmacokinetics.

[2] = system: patients with advanced unresectable pancreatic cancer; assay: randomized phase II trial: safety, adverse events (NCI-CTC); format: in vivo, human
Excerpt: This was a multi-national, open-label, controlled, randomized, parallel-group, phase II pilot study, conducted in 20 centers in 7 countries (Austria, Belgium, France, Germany, Spain, Switzerland, and the United Kingdom). Eligible patients were randomized to receive either Cilengitide and gemcitabine or gemcitabine alone. The Pocock minimization method was applied for randomization using factors for center and for locally advanced or metastatic disease following the definition according to the tumor-node-metastasis (TNM) classification and histopathological grading system of the International Union Against Cancer. Cilengitide (600 mg/m^2) was administered twice weekly as a 1 hour intravenous (IV) infusion for 4 consecutive weeks (1 cycle). Gemcitabine (1000 mg/m^2) was administered as a weekly 30-minute IV infusion once weekly for 3 weeks followed by 1 week of rest (1 cycle). In the drug combination group, on the days on which both drugs were given, Cilengitide was given immediately prior to gemcitabine. The planned treatment period was 24 weeks (6 cycles), but patients responding to either regimen could continue treatment up to a maximum of 48 weeks. […] Any change was based on patient hematological and/or non-hematological parameters on the intended day of treatment as well as the maximum drug-induced toxicity grade observed between dosing. The before treatment and 4-weekly evaluations included a physical examination and laboratory investigations (blood counts, biochemical profile, urinalysis). Assessments were also made of Karnofsky performance status and vital signs. Before the start of the study, at the end of the study and when clinically indicated during the study chest X-rays and 12-lead electrocardiograms were performed. Adverse events were monitored and evaluated for frequency, duration, severity (mild, moderate, severe, life-threatening) and possible relationship to study medication. Toxicity was assessed according to NCI-CTC Version 2. All adverse events whether reported by a patient or observed by an investigator or study nurse were documented, regardless of whether they were considered to be drug-related, together with any medical intervention.

[3] = system: patients with advanced unresectable pancreatic cancer; assay: randomized phase II trial: quality of life (EORTC QLQ-C30); format: in vivo, human; details: QLQ-C30, change from baseline
Method: Quality of life (QoL) was assessed using the European Organization for Research and Treatment of Cancer (EORTC) QoL core questionnaire (QLQ-C30, Version 3.0) in conjunction with the EORTC Pancreatic Module ([…] is a self-administered 30-item questionnaire and incorporates 5 functional scales, 3 symptom scales and a global health/QoL scale. EORTC-PAN26 is a 26-item questionnaire addressing pancreas cancer specific symptoms and the side effects from conventional therapy. Assessments were made at weeks 1, 9, 17, 25 and at the end of treatment. QoL data were analyzed descriptively due to the small number of patients enrolled in the study.

[4] = system: patients with advanced pancreatic cancer; details: cited from earlier work
[5] = ancillary pharmacokinetic study, plasma, HPLC-MS/MS; details: for Tmax: human, iv
Method: (§1) Blood samples were taken following drug administration and the plasma extracted immediately and stored. Blood samples for determination of Cilengitide were collected at the following time points: day 1 immediately before Cilengitide infusion and after 1 h (end of infusion); day 8 immediately before Cilengitide infusion and after 1 h (end of infusion) and 0.5 h, 1 h, 2 h, 3 h, 4 h, 7 h, and 11 h after end of Cilengitide infusion. Blood samples for gemcitabine analysis were collected in both treatment arms on day 1 and day 8 at the following time points: 0 h (immediately before start of infusion of gemcitabine), 0.5 h (at the end of infusion of gemcitabine) and 0.5 h, 1.5 h, 2.5 h, and 3.5 h after end of gemcitabine infusion.
(§2) Analysis was carried out at a single laboratory using high-performance liquid chromatography-tandem mass spectrometry. Calculation of pharmacokinetic parameters was performed according to non-compartmental standard methods. Pharmacokinetic analyses included maximum plasma concentration (Cmax), time to maximum concentration (tmax), area under the curve from time zero to the last sampling time (AUC0-t), area under the curve from time zero to infinity (AUC0-∝), apparent elimination rate constant (λz), apparent terminal elimination half-life associated with the negative terminal slope (t1/2), total body clearance of drug from plasma (CL) and the volume of distribution at steady state (Vss). The lower limits of quantification for Cilengitide and gemcitabine in plasma were 1 ng/mL and 50 ng/mL, respectively. For the plasma quality control samples of Cilengitide the interbatch coefficient of variation (CV) was 3.4% to 9.2% and the interbatch accuracy was 97% to 104%. For the plasma quality control samples of gemcitabine, the interbatch CV was 5.6% to 9.4% and the interbatch accuracy was 93.5% to 104%.

[6] = human, in vivo, iv, 600 mg/m^2, 1 h
Method: as §1, §2

clinical = details: human, in vivo, iv
Method: as §1, §2

[7] = system: patients with advanced solid tumors; details: in vivo; cited from earlier work
[8] = WHO criteria, ITT, listed as gemcitabine alone
[9] = all adverse events during the treatment period
[10] = onset during the treatment phase
[11] = possibly related to treatment, listed as gemcitabine alone
[12] = Cilengitide 600 mg/m^2 1 h IV infusion with gemcitabine, plasma, n 10
[13] = in combination with gemcitabine

Compound: Nc1ccn([C@@H]2O[C@H](CO)[C@@H](O)C2(F)F)c(=O)n1 [Gemcitabine, gemcitabine]
1-year survival (95% CI) ([1]; ITT population): 0.24 (0.11–0.37)
Median PFS (95% CI) ([1]; ITT population): 115 (62–178) days
Median survival (95% CI) ([1]; ITT population): 234 (137–290) days
Number of deaths ([1]; ITT population): 37
median PFS time ([1]; ITT population): 3.8 months
median overall survival ([1]; ITT population): 7.7 months
Complete response, % of patients ([1]; WHO criteria, ITT): 2%
Complete response, No. patients ([1]; WHO criteria, ITT): 1
Partial response, % of patients ([1]; WHO criteria, ITT): 12%
Partial response, No. patients ([1]; WHO criteria, ITT): 5
Progressive disease, % of patients ([1]; WHO criteria, ITT): 23%
Progressive disease, No. patients ([1]; WHO criteria, ITT): 10
Response rate, % of patients ([1]; WHO criteria, ITT): 14%
Response rate, No. patients ([1]; WHO criteria, ITT): 6
Stable disease, % of patients ([1]; WHO criteria, ITT): 42%
Stable disease, No. patients ([1]; WHO criteria, ITT): 18
Tumor growth control rate, % of patients ([1]; WHO criteria, ITT): 56%
Tumor growth control, No. patients ([1]; WHO criteria, ITT): 24
Response rate, % of patients [1, 8]: 14%
Tumor growth control rate, % of patients [1, 8]: 56%
Condition reduced, number of events ([2]; SAE, Grade 3, relationship not assessable, considered possibly related): 1
Gamma-glutamyl transferase elevations (% of patients) [2, 9]: 29%
Nausea (% of patients) [2, 9]: 50%
Shivering (% of patients) [2, 9]: 7%
ascites (% of patients) [2, 9]: 26%
cholestasis (% of patients) [2, 9]: 26%
dyspepsia (% of patients) [2, 9]: 29%
dyspnea (% of patients) [2, 9]: 14%
fever (% of patients) [2, 9]: 24%
jaundice (% of patients) [2, 9]: 19%
urinary tract infection (% of patients) [2, 9]: 21%
number of possibly related serious adverse events ([2]; in vivo): 8
patients with possibly related adverse events, % ([2]; in vivo): 76%
patients with possibly related adverse events, number ([2]; in vivo): 32
total number of possibly related adverse events ([2]; in vivo): 278
AE, Grade 1/2, No. of events [2, 10]: 617
AE, Grade 1/2, Pts (%) [2, 10]: 17%
AE, Grade 3/4, No. of events [2, 10]: 138
AE, Grade 3/4, Pts (%) [2, 10]: 83%
AE, all grades, No. of events [2, 10]: 755
AE, all grades, Pts (%) [2, 10]: 100%
SAE, all, No. of events [2, 10]: 64
SAE, all, Pts (%) [2, 10]: 71%
SAE, all, Pts (%) ([2]; onset during the treatment phase, listed as gemcitabine alone): 71%
Epistaxis, number of events ([2]; possibly related SAE, Grade 2): 1
Exanthema, number of events ([2]; possibly related SAE, Grade 2): 1
Pneumonia, number of events ([2]; possibly related SAE, Grade 2): 1
Anorexia, number of events ([2]; possibly related SAE, Grade 3): 1
Depression, number of events ([2]; possibly related SAE, Grade 3): 1
Dyspnea, number of events ([2]; possibly related SAE, Grade 3): 2
Anemia (% of patients) ([2]; possibly related to treatment): 26%
Anorexia (% of patients) ([2]; possibly related to treatment): 14%
Asthenia (% of patients) ([2]; possibly related to treatment): 10%
Edema (% of patients) ([2]; possibly related to treatment): 5%
Fatigue (% of patients) ([2]; possibly related to treatment): 19%
Hair changes (% of patients) ([2]; possibly related to treatment): 12%
Headache (% of patients) ([2]; possibly related to treatment): 0%
Leukopenia (% of patients) ([2]; possibly related to treatment): 26%
Nausea (% of patients) ([2]; possibly related to treatment): 38%
Peripheral edema (% of patients) ([2]; possibly related to treatment): 5%
Shivering (% of patients) ([2]; possibly related to treatment): 2%
Sweating increased (% of patients) ([2]; possibly related to treatment): 2%
Thrombocytopenia (% of patients) ([2]; possibly related to treatment): 33%
Vomiting (% of patients) ([2]; possibly related to treatment): 26%
dyspepsia (% of patients) ([2]; possibly related to treatment): 7%
fever (% of patients) ([2]; possibly related to treatment): 10%
Leukopenia (% of patients) [2, 11]: 26%
Shivering (% of patients) [2, 11]: 2%
patients reporting an improved global health status ([3]; week 9): 50%
patients reporting an improved global health status ([3]; week 17): 47%
median survival time ([4]; gemcitabine alone): 5.7 months
median maximum plasma concentration ([5]; gemcitabine alone group, Week 1, n = 5): 10600 ng/mL
median maximum plasma concentration ([5]; gemcitabine alone group, Week 2, n = 5): 6060 ng/mL
median maximum plasma concentration ([5]; gemcitabine in the Cilengitide and gemcitabine group, Week 1, n = 12): 6960 ng/mL
median maximum plasma concentration ([5]; gemcitabine in the Cilengitide and gemcitabine group, Week 2, n = 11): 7490 ng/mL
Tmax ([5]; plasma, 1000 mg/m^2): 0.5 h

mean concentration at the end of infusion [6]: 62.182 ± 12.345 µg/mL
level at 1 h (clinical; 600 mg/m^2, mean concentration at the end of infusion): 75.4 ± 31.5 µg/mL
half-life (clinical; t1/2, Geomean): ~3 h
CL, Geomean [5, 12]: 54.2 mL/min/m^2
Vss, Geomean [5, 12]: 12100 mL/m^2
Tmax ([5]; plasma): 1 h
Compound: CC(C)[C@H]1C(=O)N[C@@H](CCCN=C(N)N)C(=O)NCC(=O)N[C@@H](CC(=O)O)C(=O)N[C@H](Cc2ccccc2)C(=O)N1C [Cilengitide, Cyclo-l-Arg-l-Asp-d-Phe-N (Me) l-Val]
dose limiting toxicity [7]: no dose limiting toxicity was recorded

Compound: bevacizumab: anti-VEGF-agent, given in combination with gemcitabine
median overall survival time [4, 13]: 8,8 months
response rate [4, 13]: 21%
